The source of these data is patent publication US20250276069A1, “HETEROBIFUNCTIONAL COMPOSITIONS FOR TARGETED PROTEIN DEGRADATION AND METHODS FOR THEIR USE” (THE SCRIPPS RESEARCH INSTITUTE, priority 2021, published 2025).

“Also recorded” adds a separate entry of the source.

For the assay, the system named is HCC1806 cells. Description: TMT MS quantitative proteomics of live cells treated with FragTAC probes (HCC1806). It is filed as cell-based, Homo Sapiens. The note with it: TMT proteomics, targets with 2 unique peptides or more and depleted 2-fold or more relative to DMSO control (P value <0.05). On the procedure:
Mammalian cell culture: MDA-MB-231 cells (ATCC) were maintained in DMEM supplemented with 10% (v/v) fetal bovine serum (FBS), 1% (v/v) penicillin/streptomycin, and 2 mM glutamine. HCC1806 cells (ATCC) were maintained in RPMI supplemented with 10% (v/v) fetal bovine serum (FBS), 1% (v/v) penicillin/streptomycin, and 2 mM glutamine. All cell lines were grown at 37° C. in a humidified 5% CO2 atmosphere.
Treatment of Live Cells with FragTAC Probes: Separate 6 cm (for gel-based analyses) or 10 cm (for MS-based analyses) dishes of MDA-MB-231 cells or HCC1806 cells were grown to 80-95% confluency with DMEM media and RPMI media respectively. The growth medium was aspirated, and the cells were washed with Dulbecco's phosphate buffered saline (DPBS). The cells were incubated with serum-free media containing fragment probes (200 μM) or control probes (200 μM) for 6 hours at 37° C. under a 5% CO2 atmosphere. The cultures were scraped, washed with cold DPBS, and collected into 15 mL centrifuge tubes, then transferred to 1.5 mL Eppendorf tubes. The cell suspensions were centrifuged (1,400 g, 3 min) and the pellets were stored at −80° C. until the next stage of processing.
Sample preparation for TMT MS Quantitative Proteomics: For treatment of cell lysates, cells were collected, cell pellets were resuspended in 100 μL DPBS containing 1× Halt protease inhibitor cocktail, and lysed by sonication (15 ms on, 40 ms off, 15% amplitude, 1 s total). Protein concentrations were normalized (2 mg/mL in 100 μL with cold DPBS) using the Lowry Protein Assay (Pierce). Urea (48 mg) was weighed for each sample in 2 mL LoBind Eppendorf tubes and cell lysates (100 μL=200 μg) were added (final urea concentration=8 M). Pellets were resuspended in a freshly prepared 1:1 solution (50 μL) TCEP (200 mM in DPBS) and K2CO3 (600 mM in DPBS) and incubated (30 min, 37° C.) while shaking. After reaction, a solution of freshly prepared iodoacetamide (70 μL, 400 mM in DPBS) was added and incubated for 30 min at room temperature while protected from light. After reaction, 1.8 mL of cold 3:1:2 MeOH/CHCl3/H2O solution was added to each tube, and the samples were centrifuged (10,000×g, 10 min, 4° C.), forming a disc. The supernatant was carefully removed, MeOH (600 μL) was added, samples were centrifuged as previously described and the supernatant was removed. Cell pellets were resuspended in TEAB (160 μL, 100 mM, pH 8.5) and sonicated as described previously. Endoproteinase LysC (20 μL, ½ vial, 10 μg dissolved in 220 μL of 100 mM TEAB pH 8.5) was added to each and incubated at 37° C. for 2 h with shaking. Sequencing-grade modified porcine trypsin (20 μL, 1 vial, 20 μg dissolved in 220 μL of 100 mM TEAB pH 8.5), a solution of Protease Max (2 μL, 1% (w/v) in 100 mM TEAB pH 8.5) and a solution of CaCl2) (2 μL, 100 mM) were added to the samples and incubated at 37° C. overnight (14 h) with shaking. The digest was separated by centrifugation (12,000×g, 10 min, 4° C.). Peptide concentration was determined using Pierce Quantitative Fluorometric Peptide Assay Kit (Thermo Fisher Scientific, 23290) according to manufacturer's instructions. MS-grade acetonitrile (12.5 μL) was added to each and samples were labeled with respective TMT 10 plex isotope (8 μL, 20 μg/μL) for 1 h with occasional vortexing at RT. To quench, hydroxylamine (3 μL, 5% v/v) was added to each sample, vortexed, and incubated for 15 min at RT. Formic acid (5 μL) was added to each tube to acidify and the samples were dried under vacuum centrifugation. The samples were combined by redissolving the contents of one tube in a solution of trifluoroacetic acid (TFA, 400 μL, 0.1% in water) and transferred into each sample until all samples were redissolved. The stepwise process was repeated with formic acid (Buffer A, 200 μL, 0.1% in water) for a final volume of 600 μL. […]

Take `Cc1ncsc1-c1ccc(CNC(=O)[C@@H]2C[C@@H](O)CN2C(=O)[C@@H](NC(=O)CCOCCOCCC(=O)NCCc2ccc3c(c2)NC(=O)CCC3)C(C)(C)C)cc1` [LPC034, (2S,4R)-1-((S)-2-(tert-butyl)-4,13-dioxo-16-(2-oxo-2,3,4,5-tetrahydro-1H-benzo[b]azepin-8-yl)-7,10-dioxa-3,14-diazahexadecanoyl)-4-hydroxy-N-(4-(4-methylthiazol-5-yl)benzyl)pyrrolidine-2-carboxamide]: where the note is “cell line not given”, the “Downregulated proteins targeted by FragTAC probes (protein listed for the probe code)” value was “KRT10 and KRT2”.
In the case of `Cc1ncsc1-c1ccc(CNC(=O)[C@@H]2C[C@@H](O)CN2C(=O)[C@@H](NC(=O)CCOCCOCCC(=O)N[C@H]2CCCc3ccccc32)C(C)(C)C)cc1` [LPC049, (2S,4R)-1-((S)-3,3-dimethyl-2-(3-(2-(3-oxo-3-(((S)-1,2,3,4-tetrahydronaphthalen-1-yl)amino)propoxy)ethoxy)propanamido)butanoyl)-4-hydroxy-N-(4-(4-methylthiazol-5-yl)benzyl)pyrrolidine-2-carboxamide], the “Proteins targeted (downregulated) by FragTAC probe” value (value = downregulated protein) is given as “TMBIM6; also recorded: TOR4A”.
